Results reported in patent publication US7348330B2, “1-azabicyclo [2,2,2] octan-3-one derivatives” (Aprea AB, priority 2000, dated 2008).

How the values were obtained:
[1] = system: Saos-2 cells lacking p53; experiment: Colony formation assay; type: cell-based, human; settings: 5 µM of compound; colonies after 14 days
Description: Colonies were stained with Giemsa and counted 14 days after seeding.
The cells were Giemsa stained and scored for the appearance of colonies after 14 days.

[2] = molecular target: T1, GST-His-175 mutant p53 protein (Homo sapiens, UniProt P04637, R175H); experiment: Band shift assay; type: biochemical
T1 construct: made in house
Method: FIG. 7A Lane 1-3, GST-His-175 mutant p53 is unable to bind DNA. […] PAb421 antibody was added to all reaction mixtures. […] Monoclonal antibody PAb421 was added to the reaction mixtures in lanes 2-8; PAb1801 was, added to the reaction mixtures in lanes 9-15.
(§1) The GST-p53 proteins were prepared as described (Selivanova et al., 1997). Band shift assays were performed in binding buffer containing 100 mM HEPES pH 7.5, 50 mM KCl , 1 mg/ml BSA, 0.1% Triton X-100, 2 mM MgCl2 and 1 mM DTT essentially as in (Selivanova et al., 1996).
Substitution of arginin at position 175 causes a gross unfolding of the DNA binding core domain of p53.

[3] = molecular target: T2, Phe-176 mutant p53 protein (Homo sapiens, UniProt P04637, C176F); experiment: Band shift assay, KRC/Y cells; type: biochemical
T2 construct: as a source for endogenous p53 protein; endogenous in cells; host or cells: KRC/Y renal carcinoma cells (cell extract)
Method: as §1

[4] = Toxicity assessment in SCID mice; type: in vivo
Method: (§2) All animal studies were approved by the local animal ethical committee and animal care was in accordance with institutional guidelines. For toxicity assessment, 12 SCID mice (average weight 25 g) were divided in 4 groups. […] Control animals were injected with PBS. We measured weights of the mice for 1 month after the last injection. […] After 3 days the mice were divided into 4 groups. […] Injections were performed twice daily for 3 days. Tumor volume was measured during 2 months.
(§3) In the untreated control group, the average tumor volume after 59 days was 555.7±284 mm^3 (means±SE, n=3).

[5] = system: Saos-2-His-273 cells; experiment: Anti-tumor activity, xenograft in SCID mice; type: in vivo; settings: after 59 days
Method: SCID mice were injected with Saos-2-His-273 cells. […] Tumor volumes were measured once in three days for two months.
as §2, §3

Compound | inhibition of colony formation [1] | restoration of specific DNA binding [2] | restoration of specific DNA binding [3] | average weight of mice ([4]; 100 mg/kg i.v., after one month of observation, means±SE) | changes in behavior or weight ([4]; intravenous injections, 1, 10 and 100 mg/kg daily for 5 days) | average tumor volume ([5]; 20 mg/kg i.v. twice a day for three days) | average tumor volume ([5]; intratumor 20 mg/kg twice a day for three days) | average tumor volume ([5]; intravenous 100 mg/kg twice a day for three days)
CCC(=O)OCN1C(=O)C=CC1=O [MIRA-1] | 48% | able to restore | not capable of restoring |  |  |  |  | 
O=C1C2CCN(CC2)C1(CO)CO [PRIMA-1, 2,2-bis(hydroxymethyl)-1-azabicyclo[2,2,2]octan-3-one] |  |  |  | 20 ± 0.2 g | did not cause any obvious changes in behavior or weight | 53±48.5 mm^3 | 5.3±2.7 mm^3 | 11.7±8 mm^3
